Data on 31 molecules can be found in patent publication US20250171459A1, “2-METHYL-4',5'-DIHYDROSPIRO[PIPERIDINE-4,7'-THIENO[2,3-C]PYRAN] DERIVATIVES AS INHIBITORS OF APOL1 AND METHODS OF USING SAME” (Vertex Pharmaceuticals Incorporated, priority 2022, published 2025).

This assay has as its target T1, APOL1 (Homo sapiens, UniProt O14791).
T1 sequence (O14791 1-398 S342G/I384M): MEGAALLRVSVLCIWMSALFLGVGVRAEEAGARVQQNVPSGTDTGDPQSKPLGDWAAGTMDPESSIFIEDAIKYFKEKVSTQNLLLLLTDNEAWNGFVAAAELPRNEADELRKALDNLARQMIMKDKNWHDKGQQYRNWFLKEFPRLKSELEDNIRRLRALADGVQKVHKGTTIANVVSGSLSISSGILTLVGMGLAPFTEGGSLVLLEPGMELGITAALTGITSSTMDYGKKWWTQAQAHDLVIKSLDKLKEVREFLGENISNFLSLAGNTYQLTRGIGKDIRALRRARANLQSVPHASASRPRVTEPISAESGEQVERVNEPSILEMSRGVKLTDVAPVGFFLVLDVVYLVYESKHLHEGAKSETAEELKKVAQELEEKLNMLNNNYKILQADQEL
Put plainly: MultiTox-Fluor Multiplex Cytotoxicity Assay in tet-inducible APOL1 T-REx-HEK293 cells (cell rescue, ratio of dead to live cells). Type of assay: cell-based. Conditions: tet-inducible transgenic APOL1 T-REx-HEK293 cell lines, 50 ng/mL tet, 24 hours; read-out: IP50 (i.e., IC50 for cell proliferation). Summed up: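 T-REx-HEK293 cells with tet-inducible APOL1 were treated with compound (10 μM top, 10-point 3-fold dilution, duplicate) plus 50 ng/mL tetracycline for 24 h at 37° C, in DMEM with 2% tet-free FBS. MultiTox-Fluor protease signals gave a dead/live ratio, normalized to no tet (100% viability) and tet alone (0%).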
Regarding `C[C@H]1C[C@@]2(CCN1Cc1cnn(C[C@H](O)CO)c1)OC[C@@H](O)c1cc(C(F)(F)F)sc12` [Compound 968], the IC50 is below 100 nM.
Regarding `C[C@H]1C[C@@]2(CCN1Cc1cnn(C[C@@H](O)CO)c1)OC[C@@H](O)c1cc(C(F)(F)F)sc12` [Compound 969], the IC50 was below 100 nM.
For `C[C@H]1C[C@@]2(CCN1Cc1cnn(CC(O)C(N)=O)c1)OC[C@@H](O)c1cc(C(F)(F)F)sc12` (stereo partly shown) [Compound 970], the IC50 is below 100 nM.
On to `C[C@H]1C[C@@]2(CCN1Cc1cnn(CC(O)C3(O)CCOC3)c1)OC[C@@H](O)c1cc(C(F)(F)F)sc12` (stereo partly shown) [Compound 971], for which the IC50 was below 100 nM.
Turning to `C[C@H]1C[C@@]2(CCN1Cc1cnn(CC(C)(O)CO)c1)OC[C@@H](O)c1cc(C(F)(F)F)sc12` (stereo partly shown) [Compound 972], the IC50 is below 100 nM.
For the molecule `C[C@H]1C[C@@]2(CCN1Cc1cnn(CC(O)CC3(C#N)CC3)c1)OC[C@@H](O)c1cc(C(F)(F)F)sc12` (stereo partly shown) [Compound 973], the IC50 is below 100 nM.
Consider `C[C@H]1C[C@@]2(CCN1Cc1cnn(CC3(O)CCS(=O)(=O)CC3)c1)OC[C@@H](O)c1cc(C(F)(F)F)sc12` [Compound 974], for which the IC50 was below 100 nM.
For `C[C@H]1C[C@@]2(CCN1Cc1cnn(CC(O)CC3(O)COC3)c1)OC[C@@H](O)c1cc(C(F)(F)F)sc12` (stereo partly shown) [Compound 975], the IC50 was below 100 nM.
The result for `C[C@H]1C[C@@]2(CCN1Cc1cnn(CC(O)CC3(O)CCC3)c1)OC[C@@H](O)c1cc(C(F)(F)F)sc12` (stereo partly shown) [Compound 976] reads below 100 nM; that for `C[C@H]1C[C@@]2(CCN1Cc1cnn(CC(O)CC(C)(C)O)c1)OC[C@@H](O)c1cc(C(F)(F)F)sc12` (stereo partly shown) [Compound 977], below 100 nM; that for `C[C@H]1C[C@@]2(CCN1Cc1cnn(CC(O)C3(O)CCOCC3)c1)OC[C@@H](O)c1cc(C(F)(F)F)sc12` (stereo partly shown) [Compound 978], below 100 nM.
In the case of `C[C@H]1C[C@@]2(CCN1Cc1cnn(CC(O)C3(O)CCC3)c1)OC[C@@H](O)c1cc(C(F)(F)F)sc12` (stereo partly shown) [Compound 979], the IC50 is below 100 nM.
`CC(=CC(O)Cn1cc(CN2CC[C@]3(C[C@@H]2C)OC[C@@H](O)c2cc(C(F)(F)F)sc23)cn1)C1CC1` (stereo partly shown) [Compound 980]: the IC50 was in the range of 100 to 500 nM.
On to `C[C@H]1C[C@@]2(CCN1Cc1cnn(CC3CC4(CC4)C(=O)O3)c1)OCCc1c2sc(C(F)(F)F)c1CO` (stereo partly shown) [Compound 981], for which the IC50 was below 100 nM.
In the case of `C[C@H]1C[C@@]2(CCN1Cc1cnn(CC3CC4(CCC4)C(=O)O3)c1)OCCc1c2sc(C(F)(F)F)c1CO` (stereo partly shown) [Compound 982], the IC50 is below 100 nM.
The result for `C[C@H]1C[C@@]2(CCN1Cc1cnn(CC3CC(C)(C)C(=O)O3)c1)OCCc1c2sc(C(F)(F)F)c1CO` (stereo partly shown) [Compound 983] reads below 100 nM; that for `C[C@H]1C[C@@]2(CCN1Cc1cnn(CC3CC4(CCOCC4)C(=O)O3)c1)OCCc1c2sc(C(F)(F)F)c1CO` (stereo partly shown) [Compound 984], below 100 nM; that for `C[C@H]1C[C@@]2(CCN1Cc1cnn(C[C@@H](O)C(N)=O)c1)OCCc1c2sc(C(F)(F)F)c1CO` [Compound 985, (2R)-2-hydroxy-3-[4-[[(2′S, 7R)-3-(hydroxymethyl)-2′-methyl-2-(trifluoromethyl)spiro[4,5-dihydrothieno[2,3-c]pyran-7,4′-piperidine]-1′-yl]methyl]pyrazol-1-yl]propanamide], below 100 nM.
As to `CNC(=O)[C@H](O)Cn1cc(CN2CC[C@]3(C[C@@H]2C)OCCc2c3sc(C(F)(F)F)c2CO)cn1` [Compound 986, (2R)-2-hydroxy-3-[4-[[(2′S, 7R)-3-(hydroxymethyl)-2′-methyl-2-(trifluoromethyl)spiro[4,5-dihydrothieno[2,3-c]pyran-7,4′-piperidine]-1′-yl]methyl]pyrazol-1-yl]-N-methyl-propanamide], the IC50 is below 100 nM.
Regarding `C[C@H]1C[C@@]2(CCN1Cc1cnn(C[C@@H](O)C(=O)N(C)C)c1)OCCc1c2sc(C(F)(F)F)c1CO` [Compound 987, (2R)-2-hydroxy-3-[4-[[(2′S, 7R)-3-(hydroxymethyl)-2′-methyl-2-(trifluoromethyl)spiro[4,5-dihydrothieno[2,3-c]pyran-7,4′-piperidine]-1′-yl]methyl]pyrazol-1-yl]-N,N-dimethyl-propanamide], the IC50 was below 100 nM.
In the case of `CCOC(=O)C(C)(O)Cn1cc(CN2CC[C@]3(C[C@@H]2C)OCCc2c3sc(C(F)(F)F)c2CO)cn1` (stereo partly drawn) [Compound 988, Ethyl 2-hydroxy-3-[4-[[(2′S, 7R)-3-(hydroxymethyl)-2′-methyl-2-(trifluoromethyl)spiro[4,5-dihydrothieno[2,3-c]pyran-7,4′-piperidine]-1′-yl]methyl]pyrazol-1-yl]-2-methyl-propanoate], the IC50 is below 100 nM.
Next, `C[C@H]1C[C@@]2(CCN1Cc1cnn(CC(C)(O)C(N)=O)c1)OCCc1c2sc(C(F)(F)F)c1CO` (stereo partly drawn) [Compound 989, 2-Hydroxy-3-[4-[[(2′S, 7R)-3-(hydroxymethyl)-2′-methyl-2-(trifluoromethyl)spiro[4,5-dihydrothieno[2,3-c]pyran-7,4′-piperidine]-1′-yl]methyl]pyrazol-1-yl]-2-methyl-propanamide]: below 100 nM; `CNC(=O)C(C)(O)Cn1cc(CN2CC[C@]3(C[C@@H]2C)OCCc2c3sc(C(F)(F)F)c2CO)cn1` (stereo partly drawn) [Compound 990, 2-Hydroxy-3-[4-[[(2′S, 7R)-3-(hydroxymethyl)-2′-methyl-2-(trifluoromethyl)spiro[4,5-dihydrothieno[2,3-c]pyran-7,4′-piperidine]-1′-yl]methyl]pyrazol-1-yl]-N,2-dimethyl-propanamide]: below 100 nM.
On to `C[C@H]1C[C@@]2(CCN1Cc1cnn(CC(C)(O)C(=O)NC3CC3)c1)OCCc1c2sc(C(F)(F)F)c1CO` (stereo partly drawn) [Compound 991, N-cyclopropyl-2-hydroxy-3-[4-[[(2′S, 7R)-3-(hydroxymethyl)-2′-methyl-2-(trifluoromethyl)spiro[4,5-dihydrothieno[2,3-c]pyran-7,4′-piperidine]-1′-yl]methyl]pyrazol-1-yl]-2-methyl-propanamide], for which the IC50 is below 100 nM.
The result for `C[C@H]1C[C@@]2(CCN1Cc1cnn(C[C@@H](O)C(N)=O)c1)OC[C@@H](O)c1cc(C(F)(F)F)sc12` [Compound 992, (2R)-2-hydroxy-3-[4-[[(2′S,4S,7R)-4-hydroxy-2′-methyl-2-(trifluoromethyl)spiro[4,5-dihydrothieno[2,3-c]pyran-7,4′-piperidine]-1′-yl]methyl]pyrazol-1-yl]propanamide] reads below 100 nM; that for `CNC(=O)[C@H](O)Cn1cc(CN2CC[C@]3(C[C@@H]2C)OC[C@@H](O)c2cc(C(F)(F)F)sc23)cn1` [Compound 993], 100 to 500 nM.
`C[C@H]1C[C@@]2(CCN1Cc1cnn(C[C@@H](O)C(=O)N(C)C)c1)OC[C@@H](O)c1cc(C(F)(F)F)sc12` [Compound 994]: the IC50 was below 100 nM.
On to `C[C@H]1C[C@@]2(CCN1Cc1cnn(C[C@@H](O)C(=O)NC3CC3)c1)OC[C@@H](O)c1cc(C(F)(F)F)sc12` [Compound 995], for which the IC50 is below 100 nM.
Turning to `C[C@H]1C[C@@]2(CCN1Cc1cnn(C[C@H](O)C(N)=O)c1)OC[C@@H](O)c1cc(C(F)(F)F)sc12` [Compound 996], the IC50 is below 100 nM.
With `CNC(=O)[C@@H](O)Cn1cc(CN2CC[C@]3(C[C@@H]2C)OC[C@@H](O)c2cc(C(F)(F)F)sc23)cn1` [Compound 997], the IC50 is below 100 nM.
Regarding `C[C@H]1C[C@@]2(CCN1Cc1cnn(C[C@H](O)C(=O)N(C)C)c1)OC[C@@H](O)c1cc(C(F)(F)F)sc12` [Compound 998], the IC50 is below 100 nM.
